Measured values taken from US20040024024A1, “Aromatic sulfone hydroxamates and their use as protease inhibitors” (priority 2001, published 2004).
Values joined by “and” are separate entries in the source; they are usually repeats but may differ in a detail not shown here. Equal entries are not always repeated. Structures can show the parent of a compound that is named as a salt.

Experiments:
Assay type in all cases: biochemical
[1] = biological target: T1, Human recombinant MMP-14 (Homo sapiens, UniProt P50281); test: In vitro MMP inhibition, Ki determination (fluorogenic substrate II)
T1 construct: The catalytic domain enzyme was expressed in E. coli inclusion bodies, solubilized in urea; made in house
Experimental: (§1) Several hydroxamates and salts thereof were analyzed in in vitro assays to determine their ability to inhibit the MMP cleavage of peptide substrates. Inhibition (Ki) and IC50 constants were calculated from the assayed hydroxamate-MMP interactions.
(§2) Human recombinant MMP-1, MMP-2, MMP-9, MMP-13, and MMP-14 were used in this assay. All enzymes were prepared in Assignee's laboratories following usual laboratory procedures. Protocols for the preparation and use of these enzymes are available in the scientific literature. See, e.g., Enzyme Nomenclature (Academic Press, San Diego, Calif., 1992) (and the citations therein). See also, Frije et al., J. Biol. Chem., 26(24), 16766-73 (1994).
The MMP-14 full length cDNA was provided by Dr. Gregory Goldberg of Washington University (St. Louis, Mo.). The catalytic domain enzyme was expressed in E. coli inclusion bodies, solubilized in urea, purified on a preparative […] reverse phase HPLC column, and then refolded in the presence of zinc acetate and purified for use.
(§3) All MMPs were activated using 4-aminophenylmercuric acetate (“APMA”, Sigma Chemical, St. Louis, Mo.) or trypsin. MMP-9 also was activated using human recombinant MMP-3 (purified in Assignee's laboratory following standard cloning and purification techniques).
(§4) Two fluorogenic, methoxycoumarin-containing polypeptide substrates were used in the MMP inhibition assays:
(§5) MCA-ArgProLeuGlyLeuDpaAlaArgGluArgNH2 (II)
(§6) Here, “Dpa” is 3-(2,4-dinitrophenyl)-L-2,3-diaminopropionyl group, and “MCA” is 7-methoxycoumarin-4-yl acetyl. Substrate (I) was purchased from Baychem (Redwood City, Calif.), and substrate II was prepared Assignee's laboratory. Substrate I was used in the IC50 determination assays, while substrate II was used in the Ki determination assays. In the absence of MMP inhibitory activity, either substrate is cleaved at the Gly-Leu peptide bond. This cleavage separates the highly fluorogenic peptide from the 2,4-dinitrophenyl quencher, thus resulting in increase of fluorescent intensity.
(§7) The stock solutions of the assayed hydroxamates (or salts thereof) were prepared in 1% dimethyl sulfoxide (DMSO). These stock solutions were diluted in Buffer A (100 mM Tris-HCl, 100 mM NaCl, 10 mM CaCl2, 0.05% polyoxyethylene 23 lauryl ether, pH 7.5) to obtain solutions with different hydroxamate concentrations, i.e., assay solutions with different concentrations of the assayed MMP inhibitory compound. The experiment controls contained the same amount of Buffer A/DMSO as the assayed sample, but contained no hydroxamate (or salt thereof).
(§8) The assays from which the Ki determinations were made were performed as follows. The assayed hydroxamate samples were incubated in separate wells of untreated white polystyrene plates (Nunc Nalgene International, Rochester, N.Y.), and analyzed on a Tecan SpectraFlour Plus plate reader. The excitation wavelength was 330 nm, and the emission wavelength—420 nm. All samples (assayed hydroxamates and controls) were incubated in separate plate wells at room temperature for 1 hr in the presence of 4 μM of MMP substrate (II). In the absence of MMP inhibitory activity, substrate II was cleaved at the Gly-Leu bond resulting in an increase of relative fluorescence. Inhibition was observed as a reduced rate of this increase in relative fluorescence. The various hydroxamates were analyzed using a single low enzyme concentration with a single substrate concentration fixed at or below the Km. This protocol is a modification of method by Knight et al., FEBS Lett., 296(3), 263-266 (1992). Apparent inhibitory constants were determined by non-linear regression of reaction velocity as a function of inhibitor and enzyme concentration using Morrison's equation, as described by Kuzmic, Anal. Biochem. 286, 45-50 (2000). Modifications were made in the non-linear regression method to allow a common control reaction rate and effective enzyme concentration to be shared between all dose-response relationships on a given assay plate. […]

[2] = biological target: T2, Human recombinant MMP-13 (Homo sapiens, UniProt P45452); test: as above
T2 construct: made in house; host or cells: baculovirus / insect cells
Experimental: as §1, §2
The expressed proenzyme was first purified over a heparin agarose column, and then over a chelating zinc chloride column. The proenzyme was then activated by APMA for use in the assay. Further details on baculovirus expression systems may be found in, for example, Luckow et al., J. Virol., 67, 4566-79 (1993). See also, O'Reilly et al, Baculovirus Expression Vectors: A Laboratory Manual (W. H. Freeman and Co., New York, N.Y., 1992). See also, King et al., The Baculovirus Expression System: A Laboratory Guide (Chapman & Hall, London, England, 1992).
as §3, §4, §5, §6, §7
as §8, with “(2000).” for “(2000). Modifications were made in the non-linear regression method to allow a common control reaction rate and effective enzyme concentration to be shared between all dose-response relationships on a given assay plate.”

[3] = biological target: T3, Human recombinant MMP-9 (Homo sapiens, UniProt P14780); test: In vitro MMP inhibition, IC50 determination (fluorogenic substrate I)
T3 construct: made in house; host or cells: MMP-9-transfected HT1080 cells (spent media)
Outline: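 Reduction in fluorescence (328 nm excitation, 415 nm emission) from cleavage of 4 μM quenched peptide substrate I, measured at room temperature against inhibitor concentration, gave IC50. Enzyme: trypsin- or APMA-activated MMP-9 purified from transfected HT1080 medium; buffer 100 mM Tris, 100 mM NaCl, 10 mM CaCl2, pH 7.5.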

[4] = substrate (II) 4 μM, 1 hr room temperature, apparent Ki, values in parenthesis
[5] = substrate (I) 4 μM, room temperature, values not in parenthesis

T3 sequence (P14780 107-707 limits assumed): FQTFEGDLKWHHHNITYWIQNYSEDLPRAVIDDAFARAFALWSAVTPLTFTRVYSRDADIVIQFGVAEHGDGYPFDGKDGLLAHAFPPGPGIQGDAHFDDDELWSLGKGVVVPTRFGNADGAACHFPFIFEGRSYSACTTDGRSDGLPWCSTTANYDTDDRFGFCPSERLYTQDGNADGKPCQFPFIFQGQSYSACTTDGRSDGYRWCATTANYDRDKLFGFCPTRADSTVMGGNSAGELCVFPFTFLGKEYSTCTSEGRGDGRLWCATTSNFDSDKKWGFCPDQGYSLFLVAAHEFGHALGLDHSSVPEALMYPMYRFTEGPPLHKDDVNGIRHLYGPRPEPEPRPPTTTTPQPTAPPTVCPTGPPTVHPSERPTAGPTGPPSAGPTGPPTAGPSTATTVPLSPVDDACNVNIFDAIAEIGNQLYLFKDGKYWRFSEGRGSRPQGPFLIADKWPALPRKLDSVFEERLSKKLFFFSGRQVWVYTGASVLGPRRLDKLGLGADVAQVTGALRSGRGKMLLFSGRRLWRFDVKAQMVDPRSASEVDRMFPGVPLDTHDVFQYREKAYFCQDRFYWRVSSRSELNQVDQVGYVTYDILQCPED

| Ki ([1]; value in parenthesis) [µM] | Ki ([1]; value in parentheses) [µM] | Ki ([2]; value in parentheses) [nM] | Compound | other results |
| --- | --- | --- | --- | --- |
|  |  |  | O=C(NO)C1(S(=O)(=O)c2ccc(OCCCc3nc(-c4ccc(OC(F)(F)F)cc4)no3)cc2)CCOCC1 [Example 31, tetrahydro-N-hydroxy-4-[[4-[3-[3[4-(trifluoromethoxy)phenyl]-1,2,4-oxadiazol-5-yl]propoxy]phenyl]sulfonyl]-2H-pyran-4-carboxamide] | Ki [1, 4]: > 10 µM; Ki [2, 4]: 1.5 nM; IC50 [3, 5]: 5650 nM |
|  |  |  | O=C(NO)C1(S(=O)(=O)c2ccc(OCCCc3cccc(-c4ccc(F)cc4)c3)cc2)CCOCC1 [Example 39] | Ki [1, 4]: > 10 µM; Ki [2, 4]: 3.04 nM |
|  |  |  | COCCN1CCC(C(=O)NO)(S(=O)(=O)c2ccc(OCCCc3cc(-c4ccc(F)cc4F)cs3)cc2)CC1 [Example 47, 4-[(4-{3-[4-(2,4-difluorophenyl)thien-2-l]propoxy}phenyl)sulfonyl]-N-hydroxy-1-(2-methoxyethyl)piperidine-4-carboxamide Hydrochloride] | Ki [1, 4]: 3.32 µM and 5.29 µM; Ki [2, 4]: 0.304 nM and 0.423 nM |
|  |  |  | COCCN1CCC(C(=O)NO)(S(=O)(=O)c2ccc(OCCCn3nnc(-c4ccc(OC(F)(F)F)cc4)n3)cc2)CC1 [Example 48] | Ki [2, 4]: 0.127 nM; IC50 [3, 5]: 4450 nM |
|  |  |  | NC(=O)c1cccc(OCCOc2ccc(S(=O)(=O)C3(C(=O)NO)CCOCC3)cc2)c1 [Example 54] | Ki [1, 4]: 4.12 µM |
| 5.41 |  |  | CC(C)C(=O)c1cccc(CCCOc2ccc(S(=O)(=O)C3(C(=O)NO)CCOCC3)cc2)c1 [Example 95] | IC50 ([3]; value outside parenthesis): 1200 nM |
| > 10 |  |  | O=C(NO)C1(S(=O)(=O)c2ccc(OCCCc3cccc(-c4ccco4)c3)cc2)CCOCC1 [Example 97] | Ki ([2]; value in parenthesis): 5.57 nM |
| > 10 |  |  | O=C1Nc2ccc(-c3noc(CCCOc4ccc(S(=O)(=O)C5(C(=O)NO)CCN(C6CC6)CC5)cc4)n3)cc21 [Example 142] | Ki ([2]; value in parenthesis): 1.34 nM |
| > 10 |  |  | O=C(NO)C1(S(=O)(=O)c2ccc(OCCCc3cccc(-c4ccc(OC(F)(F)F)cc4)c3)cc2)CCOCC1 [Example 147] | Ki ([2]; value in parenthesis): 23.9 nM |
| 5.15 |  |  | O=C(NO)C1(S(=O)(=O)c2ccc(OCCCc3cccc(-c4ccccn4)c3)cc2)CCOCC1 [Example 148] | Ki ([2]; value in parenthesis): 1.72 nM |
| 2.53 |  |  | O=C(NO)C1(S(=O)(=O)c2ccc(OCCCc3cccc(-c4ccncc4)c3)cc2)CCOCC1 [Example 149] | Ki ([2]; value in parenthesis): 1.18 nM |
| > 10 |  |  | CC(C)c1ccc(-c2cccc(CCCOc3ccc(S(=O)(=O)C4(C(=O)NO)CCOCC4)cc3)c2)cc1 [Example 160] |  |
|  |  |  | O=C(NO)C1(S(=O)(=O)c2ccc(OCCCc3cccc(-c4cccc(F)c4)c3)cc2)CCOCC1 [Example 161] | Ki ([2]; value in parenthesis): 20.3 nM; IC50 ([3]; value outside parenthesis): 2630 nM |
| > 10 |  |  | O=C(NO)C1(S(=O)(=O)c2ccc(OCCCc3cccc(-c4ccccc4Cl)c3)cc2)CCOCC1 [Example 162] | Ki ([2]; value in parenthesis): 12 nM |
| > 10 |  |  | Cc1ccccc1-c1cccc(CCCOc2ccc(S(=O)(=O)C3(C(=O)NO)CCOCC3)cc2)c1 [Example 164] | Ki ([2]; value in parenthesis): 6.85 nM |
| > 10 |  |  | Cc1ccc(-c2cccc(CCCOc3ccc(S(=O)(=O)C4(C(=O)NO)CCOCC4)cc3)c2)cc1C [Example 165] | Ki ([2]; value in parenthesis): 144 nM |
|  | 6.29 |  | O=C(NO)C1(S(=O)(=O)c2ccc(OCCCc3cncc(Br)c3)cc2)CCOCC1 [Example 522] |  |

| Ki ([1]; value in parenthesis) [µM] | Ki ([1]; value in parentheses) [µM] | Ki ([2]; value in parentheses) [nM] | Compound | other results |
| --- | --- | --- | --- | --- |
|  | 4.4 | 0.7 | O=C(COc1ccc(S(=O)(=O)C2(C(=O)NO)CCOCC2)cc1)c1cccc(-c2ccccc2)c1 [Example 563] |  |
|  | 1.36 | 0.142 | O=C(CCCOc1ccc(S(=O)(=O)C2(C(=O)NO)CCOCC2)cc1)Nc1cccc(I)c1 [Example 570] |  |
|  | 5.39 | 1.32 | O=C(NO)C1(S(=O)(=O)c2ccc(OCCCc3cccc(-n4ccnc4)c3)cc2)CCOCC1 [Example 574] |  |
|  | > 10 | 1.72 | O=C(NO)C1(S(=O)(=O)c2ccc(OCCCc3nc(-c4cccnc4)no3)cc2)CCOCC1 [Example 578] |  |
|  | 6.63 | 0.944 | O=C(NO)C1(S(=O)(=O)c2ccc(OCCCc3nc(-c4ccccc4)no3)cc2)CCOCC1 [Example 584] |  |
|  |  | 0.24 | O=C(NCCOc1ccc(S(=O)(=O)C2(C(=O)NO)CCOCC2)cc1)c1cc2ccccc2[nH]1 [Example 599] | IC50 ([3]; value outside parentheses): 11.6 nM |
|  | > 10 | 43.6 | O=C(NO)C1(S(=O)(=O)c2ccc(OCCCc3cccc(-c4ccc(C(F)(F)F)cc4)c3)cc2)CCOCC1 [Example 625] |  |
|  | > 10 | 40.9 | O=C(NO)C1(S(=O)(=O)c2ccc(OCCCc3cccc(-c4ccc5c(c4)OCCO5)c3)cc2)CCOCC1 [Example 627] |  |
|  | > 10 | 89.1 | O=C(NO)C1(S(=O)(=O)c2ccc(OCCCc3cccc(-c4ccc5ccccc5c4)c3)cc2)CCOCC1 [Example 629] |  |
|  | > 10 | 57.6 | O=C(NO)C1(S(=O)(=O)c2ccc(OCCCc3cccc(-c4csc5ccccc45)c3)cc2)CCOCC1 [Example 631] |  |
|  | > 10 | 92.4 | O=C(NO)C1(S(=O)(=O)c2ccc(OCCCc3cccc(-c4cc5ccccc5s4)c3)cc2)CCOCC1 [Example 633] |  |
|  | > 10 | 19.4 | O=C(NO)C1(S(=O)(=O)c2ccc(OCCCc3cccc(-c4coc5ccccc45)c3)cc2)CCOCC1 [Example 634] |  |
|  | > 10 | 26.2 | C=Cc1ccc(-c2cccc(CCCOc3ccc(S(=O)(=O)C4(C(=O)NO)CCOCC4)cc3)c2)cc1 [Example 635] |  |
|  | > 10 | 3.21 | O=C(NO)C1(S(=O)(=O)c2ccc(OCCCc3cccc(-c4ccccc4O)c3)cc2)CCOCC1 [Example 636] |  |
|  | > 10 | 68.1 | O=C(NO)C1(S(=O)(=O)c2ccc(OCCCc3cccc(-c4cccc5ccccc45)c3)cc2)CCOCC1 [Example 638] |  |
|  | > 10 | 12.5 | Cc1ccc(-c2cccc(CCCOc3ccc(S(=O)(=O)C4(C(=O)NO)CCOCC4)cc3)c2)s1 [Example 639] |  |
